# Source: patent US20240376123A1, “KRAS G12D INHIBITORS AND USES THEREOF” (SUZHOU ZANRONG PHARMA LIMITED, priority 2021, published 2024)
# pIC50: −log10 of the molar value.
# Tested on: not listed separately
# Test: In vivo oral bioavailability assay
# Conditions: Balb/c mice female, IV bolus 1 mg/kg and oral gavage 30 mg/kg, single dose
# Procedure: Single dose following IV bolus (1 mg/kg, 0.2 mg/mL in 1% DMSO, 99% SBE-β-CD (10% w/v) in water) and oral gavage (30 mg/kg, 3 mg/mL in 1% MC in DI water) administration of test compound in Balb/c Mice female. The blood samples were collected at 2 min, 5 min, 10 min, 30 min, 1 hr, 2 hr, 4 hr, 8 hr and 24 hr (additional 32 hr and 48 hr for MRTX1133) after IV bolus, at 15 min, 30 min, 1 hr, 1.5 hr, 2 hr, 3 hr, 4 hr, 8 hr and 24 hr (additional 32 hr and 48 hr for MRTX1133) after PO administration. The plasma concentrations of compounds were determined with UPLC-MS/MS.
Bioavailability (%),Fa*Fg (%),Structure (SMILES)
0.66,0.95,"C#Cc1c(F)ccc2cc(O)cc(-c3ncc4c(N5CC6CCC(C5)N6)nc(OC[C@@]56CCCN5C[C@H](F)C6)nc4c3F)c12 [MRTX-1133, reference compound]"

# Tested on: WT-KRAS cell line MKN-1
# Test: Phospho-ERK 1/2 assay, WT-KRAS cell line MKN-1 (Table 2)
# Assay type: cell-based
# Conditions: Homo sapiens; WT-KRAS cell line MKN-1, p-ERK
# Procedure: (§1) Allow PNAC-1/HPAC cell growth in a T75 flask in DMEM and 10% 1 fetal calf serum (FCS; Gibco), using standard tissue culture procedures until ˜80% confluency is achieved. Day 1, seed 6000 cells/well in 384 well plate and incubate at 37° C., 5% CO2. Add diluted compound by Echo 550, final DMSO is 0.5%, incubate cells at 37° C., 5% CO2 for 3 hours. Then, remove medium and fix cells with 3.7% formaldehyde in PBS (PFA) by Apricot. Wash with PBS once. Permeabilize cells with cold 100% methanol and repeat wash once with PBS once. Add Li-Cor blocking buffer to each well and incubate 1.5 hours at RT. Remove blocking buffer and add primary antibody mixture (rabbit anti pERK, mouse anti GAPDH). Incubate at 4° C. overnight. Day 2, wash with PBST (Tween-20 in PBS) with total 3 times and then add secondary antibody mixture (goat anti rabbit 800CW (1:800 dilution in the combined solution) and goat anti mouse 680RD (1:800 dilution in the combined solution)), incubate for 60 minutes at RT away from light. Repeat washing with PBST 3 times. After final wash, centrifuge plate up-side-down at 1000 rpm to remove wash solution completely from wells. Before plate scanning, clean the bottom plate surface and the Odyssey* Imager scanning bed (if applicable) with moist, lint-free tissue to avoid any obstructions during scanning. Scan plate with detection in both 700 and 800 nm channels.
# (§2) Table 2 describes the p-ERK IC50 values and selectivity over WT-KRAS cell line MKN-1 of the exemplary compounds of the present disclosure and reference compound MRTX-1133.
row,pIC50,Structure (SMILES)
1,7.08,"C#Cc1c(F)ccc2cc(O)cc(-c3ncc4c(N5CC6CCC(C5)N6)nc(OC[C@@]56CCCN5C[C@H](F)C6)nc4c3F)c12 [MRTX-1133, reference compound]"

# Same assay, conditions: selectivity over WT-KRAS cell line MKN-1 vs Panc-1 p-ERK
row,Structure (SMILES),Selectivity Fold [Fold]
1,"C#Cc1c(F)ccc2cc(O)cc(-c3ncc4c(N5CC6CCC(C5)N6)nc(OC[C@@]56CCCN5C[C@H](F)C6)nc4c3F)c12 [MRTX-1133, reference compound]",36

# Tested on: Panc-1 p-ERK
# Test: Phospho-ERK 1/2 assay, Panc-1 (Table 2)
# Assay type: cell-based
# Conditions: Homo sapiens; Panc-1 cells
# Procedure: as §1, §2
row,pIC50,Structure (SMILES)
1,8.64,"C#Cc1c(F)ccc2cc(O)cc(-c3ncc4c(N5CC6CCC(C5)N6)nc(OC[C@@]56CCCN5C[C@H](F)C6)nc4c3F)c12 [MRTX-1133, reference compound]"

# Tested on: p-ERK in PNAC-1/HPAC cell
# Test: Phospho-ERK 1/2 assay (Table 1)
# Assay type: cell-based
# Conditions: Homo sapiens; PNAC-1/HPAC cell, 3 hours compound incubation; read-out: p-ERK IC50
# Procedure: as §1
row,Structure (SMILES),pIC50
1,"C#Cc1cccc2cccc(-c3nc4c5c(nc(OC[C@@]67CCCN6C[C@H](F)C7)nc5c3F)N3C[C@@H]5CC[C@@H](N5)C3CO4)c12 (stereo partly drawn) [Compound 19, (6R,9S)-2-(8-ethynylnaphthalen-1-yl)-1-fluoro-12-(((2R,7aS)-2-fluorotetrahydro-1H-pyrrolizin-7a(5H)-yl)methoxy)-5a,6,7,8,9,10-hexahydro-5H-4-oxa-3,10a,11,13,14-pentaaza-6,9-methanonaphtho[1,8-ab]heptalene]",7.54
2,"N#Cc1cccc2cccc(-c3nc4c5c(nc(OC[C@@]67CCCN6C[C@H](F)C7)nc5c3F)N3C[C@@H]5CC[C@@H](N5)C3CO4)c12 (stereo partly drawn) [Compound 20, 8-((6R,9S)-1-fluoro-12-(((2R,7aS)-2-fluorotetrahydro-1H-pyrrolizin-7a(5H)-yl)methoxy)-5a,6,7,8,9,10-hexahydro-5H-4-oxa-3,10a,11,13,14-pentaaza-6,9-methanonaphtho[1,8-ab]heptalen-2-yl)-1-naphthonitrile]",6.13
3,"Fc1cccc(-c2nc3c4c(nc(OC[C@@]56CCCN5C[C@H](F)C6)nc4c2F)N2C[C@@H]4CC[C@@H](N4)C2CO3)c1C1CC1 (stereo partly drawn) [Compound 21, (6R,9S)-2-(2-cyclopropyl-3-fluorophenyl)-1-fluoro-12-(((2R,7aS)-2-fluorotetrahydro-1H-pyrrolizin-7a(5H)-yl)methoxy)-5a,6,7,8,9,10-hexahydro-5H-4-oxa-3,10a,11,13,14-pentaaza-6,9-methanonaphtho[1,8-ab]heptalene]",5.91
4,"N#Cc1c(N)sc2cccc(-c3nc4c5c(nc(OC[C@@]67CCCN6C[C@H](F)C7)nc5c3F)N3C[C@@H]5CC[C@@H](N5)C3CO4)c12 (stereo partly drawn) [Compound 22, 2-amino-4-((6R,9S)-1-fluoro-12-(((2R,7aS)-2-fluorotetrahydro-1H-pyrrolizin-7a(5H)-yl)methoxy)-5a,6,7,8,9,10-hexahydro-5H-4-oxa-3,10a,11,13,14-pentaaza-6,9-methanonaphtho[1,8-ab]heptalen-2-yl)benzo[b]thiophene-3-carbonitrile]",6.31
5,"Fc1c(-c2cccc(Cl)c2C2CC2)nc2c3c(nc(OC[C@@]45CCCN4C[C@H](F)C5)nc13)N1C[C@@H]3CC[C@@H](N3)C1CO2 (stereo partly drawn) [Compound 23, (6R,9S)-2-(3-chloro-2-cyclopropylphenyl)-1-fluoro-12-(((2R,7aS)-2-fluorotetrahydro-1H-pyrrolizin-7a(5H)-yl)methoxy)-5a,6,7,8,9,10-hexahydro-5H-4-oxa-3,10a,11,13,14-pentaaza-6,9-methanonaphtho[1,8-ab]heptalene]",6.43
6,"CC(=O)c1cccc2cc(O)cc(-c3nc4c5c(nc(OC[C@@]67CCCN6C[C@H](F)C7)nc5c3F)N3C[C@H]5CC[C@H](N5)[C@H]3CO4)c12 [Compound 26, 1-(8-((5aS,6S,9R)-1-fluoro-12-(((2R,7aS)-2-fluorotetrahydro-1H-pyrrolizin-7a(5H)-yl)methoxy)-5a,6,7,8,9,10-hexahydro-5H-4-oxa-3,10a,11,13,14-pentaaza-6,9-methanonaphtho[1,8-ab]heptalen-2-yl)-6-hydroxynaphthalen-1-yl) ethan-1-one]",6.83
7,"Oc1cc(-c2nc3c4c(nc(OC[C@@]56CCCN5C[C@H](F)C6)nc4c2F)N2C[C@H]4CC[C@H](N4)[C@H]2CO3)c2c(Cl)cccc2c1 [Compound 27, 5-chloro-4-((5aS,6S,9R)-1-fluoro-12-(((2R,7aS)-2-fluorotetrahydro-1H-pyrrolizin-7a(5H)-yl)methoxy)-5a,6,7,8,9,10-hexahydro-5H-4-oxa-3,10a,11,13,14-pentaaza-6,9-methanonaphtho[1,8-ab]heptalen-2-yl)naphthalen-2-ol]",8.30
8,"Oc1cc(-c2nc3c4c(nc(OC[C@@]56CCCN5C[C@H](F)C6)nc4c2F)N2C[C@H]4CC[C@H](N4)[C@H]2CO3)c2cc(F)ccc2c1 [Compound 30, 6-fluoro-4-((5aS,6S,9R)-1-fluoro-12-(((2R,7aS)-2-fluorotetrahydro-1H-pyrrolizin-7a(5H)-yl)methoxy)-5a,6,7,8,9,10-hexahydro-5H-4-oxa-3,10a,11,13,14-pentaaza-6,9-methanonaphtho[1,8-ab]heptalen-2-yl)naphthalen-2-ol]",7.77
9,"C#Cc1cccc2cc(O)cc(-c3nc4c5c(nc(OC[C@@]67CCCN6C[C@H](F)C7)nc5c3F)N3C[C@H]5CC[C@H](N5)[C@H]3CO4)c12 [Compound 31, 5-ethynyl-4-((5aS,6S,9R)-1-fluoro-12-(((2R,7aS)-2-fluorotetrahydro-1H-pyrrolizin-7a(5H)-yl)methoxy)-5a,6,7,8,9,10-hexahydro-5H-4-oxa-3,10a,11,13,14-pentaaza-6,9-methanonaphtho[1,8-ab]heptalen-2-yl)naphthalen-2-ol]",8.10
10,"C#Cc1c(F)ccc2cccc(-c3nc4c5c(nc(OCC6(CN7CCOCC7)CC6)nc5c3F)N3C[C@H]5CC[C@H](N5)[C@H]3CO4)c12 [Compound 40, (5aS)-2-(8-ethynyl-7-fluoronaphthalen-1-yl)-1-fluoro-12-((1-(morpholinomethyl)cyclopropyl)methoxy)-5a,6,7,8,9,10-hexahydro-5H-4-oxa-3,10a,11,13,14-pentaaza-6,9-methanonaphtho[1,8-ab]heptalene]",6.81
11,"C#Cc1c(F)ccc2cccc(-c3nc4c5c(nc(OCC6(CN7CCO[C@H](C)C7)CC6)nc5c3F)N3C[C@H]5CC[C@H](N5)[C@H]3CO4)c12 [Compound 41, (5aS)-2-(8-ethynyl-7-fluoronaphthalen-1-yl)-1-fluoro-12-((1-(((R)-2-methylmorpholino)methyl)cyclopropyl)methoxy)-5a,6,7,8,9,10-hexahydro-5H-4-oxa-3,10a,11,13,14-pentaaza-6,9-methanonaphtho[1,8-ab]heptalene]",6.41
12,"C#Cc1c(F)ccc2cccc(-c3nc4c5c(nc(OCC6(CN7CCOC[C@H]7C)CC6)nc5c3F)N3C[C@H]5CC[C@H](N5)[C@H]3CO4)c12 [Compound 42, (5aS)-2-(8-ethynyl-7-fluoronaphthalen-1-yl)-1-fluoro-12-((1-(((R)-3-methylmorpholino)methyl)cyclopropyl)methoxy)-5a,6,7,8,9,10-hexahydro-5H-4-oxa-3,10a,11,13,14-pentaaza-6,9-methanonaphtho[1,8-ab]heptalene]",6.80
13,"CCCCCCCCCC(=O)OCOC(=O)N1[C@@H]2CC[C@H]1[C@H]1COc3nc(-c4cc(O)cc5ccc(F)c(CC)c45)c(F)c4nc(OC[C@@]56CCCN5C[C@H](F)C6)nc(c34)N1C2 [Compound 45, (Decanoyloxy)methyl (5aS,6S,9R)-2-(8-ethyl-7-fluoro-3-hydroxynaphthalen-1-yl)-1-fluoro-12-(((2R,7aS)-2-fluorotetrahydro-1H-pyrrolizin-7a(5H)-yl)methoxy)-5a,6,7,8,9,10-hexahydro-5H-4-oxa-3,10a,11,13,14-pentaaza-6,9-methanonaphtho[1,8-ab]heptalene-14-carboxylate]",8.46
14,"C#Cc1c(F)ccc2cc(O)cc(-c3nc4c5c(nc(OC[C@@]67CCCN6C[C@H](F)C7)nc5c3F)N3C[C@H]5CC[C@H](N5)[C@H]3CO4)c12 [Compound 111, 5-ethynyl-6-fluoro-4-((5aS,6S,9R)-1-fluoro-12-(((2R,7aS)-2-fluorotetrahydro-1H-pyrrolizin-7a(5H)-yl)methoxy)-5a,6,7,8,9,10-hexahydro-5H-4-oxa-3,10a,11,13,14-pentaaza-6,9-methanonaphtho[1,8-ab]heptalen-2-yl)naphthalen-2-ol]",7.92
